Measured values reported in patent US20250195463A1, “ORGANOMETALLIC COMPLEX, CONTROLLED-RELEASE MULTI-FUNCTIONAL DRUG, PHARMACEUTICAL COMPOSITION, PROCESSES FOR THE PREPARATION THEREOF AND THEIR USE” (FACULDADE DE CIÊNCIAS DA UNIVERSIDADE DE LISBOA, priority 2022, published 2025).
Read-outs that look alike come from different tables or passages of the source.

Columns and labels:
[1] = Stability in aqueous medium (dimethyl sulfoxide/Dulbecco's Modified Eagle Medium) by UV-Vis spectroscopy; assay type: physicochemical; conditions: 5% dimethyl sulfoxide/95% Dulbecco's Modified Eagle Medium; for Relative variation of the maximum absorbance of the π→π* transitions: band 292-296 nm (λmax in column head); for Relative variation of the maximum absorbance of the charge transfer bands: band 358-400 nm (λmax in column head)
Summary of the method: (§1)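 UV-Vis spectra (270-900 nm) were recorded at intervals from 0 to 24 h, at room temperature in the dark. Solvents were 100% DMSO, or 5% or 10% DMSO in DMEM depending on complex, at 7.0×10^-5 M to 3.0×10^-4 M.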

MDA-MB-134-VI (FGFR+) = experiment: MTT cytotoxicity assay; conditions: read-out: Cytotoxic activity expressed as IC50; Table 6; MDA-MB-134-VI (FGFR+); 48 h, 37° C.
Summary of the method: (§2)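 Cells were exposed continuously for 48 h at 37 °C to compounds at 0.1 to 100 μM. In pH-controlled runs, RuPC1 stock was pre-incubated 48 h at pH 6.8 or 7.4, then tested at 0.1 to 50 μM. Viability was read by MTT (0.5 mg/mL, 3 h) absorbance at 570 nm versus untreated cells, with IC50 fitted.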

SK-BR-3 (FGFR+) = experiment: MTT cytotoxicity assay; conditions: read-out: Cytotoxic activity expressed as IC50; Table 6; SK-BR-3 (FGFR+); 48 h, 37° C.
Summary of the method: as §2

MCF-7 (FGFR−) = experiment: MTT cytotoxicity assay; conditions: read-out: Cytotoxic activity expressed as IC50; Table 6; MCF-7 (FGFR−); 48 h, 37° C.
Summary of the method: as §2

MDA-MB-231 (FGFR−) = experiment: MTT cytotoxicity assay; conditions: for IC50 range in words: Example 24; for IC50: read-out: Cytotoxic activity expressed as IC50, 48 h, 37° C.
Summary of the method: as §2

[2] = Stability in organic medium (dimethyl sulfoxide) by UV-Vis spectroscopy; assay type: physicochemical; conditions: for Relative variation of the maximum absorbance of the π→π* transitions: band 289-300 nm (λmax in column head); for Relative variation of the maximum absorbance of the charge transfer bands: band 357-425 nm (λmax in column head)
Summary of the method: as §1

NNC(=O)C1=C[CH]([Ru-]2([PH](c3ccccc3)(c3ccccc3)c3ccccc3)[n+]3ccccc3-c3cccc[n+]32)C=C1.O=S(=O)([O-])C(F)(F)F (stereo not drawn) [compound 4]
Relative variation of the maximum absorbance of the π→π* transitions ([1]; time 0 h): 0.0% | Relative variation of the maximum absorbance of the charge transfer bands ([1]; time 0 h): 0.0% | Relative variation of the maximum absorbance of the π→π* transitions ([1]; time 0.25 h): 0.1% | Relative variation of the maximum absorbance of the charge transfer bands ([1]; time 0.25 h): −0.2% | Relative variation of the maximum absorbance of the π→π* transitions ([1]; time 0.5 h): 0.1% | Relative variation of the maximum absorbance of the charge transfer bands ([1]; time 0.5 h): −0.7% | Relative variation of the maximum absorbance of the π→π* transitions ([1]; time 0.75 h): −0.4% | Relative variation of the maximum absorbance of the charge transfer bands ([1]; time 0.75 h): −1.3% | Relative variation of the maximum absorbance of the π→π* transitions ([1]; time 1 h): −0.3% | Relative variation of the maximum absorbance of the charge transfer bands ([1]; time 1 h): −0.9% | Relative variation of the maximum absorbance of the π→π* transitions ([1]; time 2 h): −0.6% | Relative variation of the maximum absorbance of the charge transfer bands ([1]; time 2 h): −0.7% | Relative variation of the maximum absorbance of the π→π* transitions ([1]; time 3 h): −0.9% | Relative variation of the maximum absorbance of the charge transfer bands ([1]; time 3 h): −1.4% | Relative variation of the maximum absorbance of the π→π* transitions ([1]; time 4 h): −1.2% | Relative variation of the maximum absorbance of the charge transfer bands ([1]; time 4 h): −0.7% | Relative variation of the maximum absorbance of the π→π* transitions ([1]; time 5 h): −1.5% | Relative variation of the maximum absorbance of the charge transfer bands ([1]; time 5 h): −2.1% | Relative variation of the maximum absorbance of the π→π* transitions ([1]; time 6 h): −1.7% | Relative variation of the maximum absorbance of the charge transfer bands ([1]; time 6 h): −2.3% | Relative variation of the maximum absorbance of the π→π* transitions ([1]; time 24 h): 0.1% | Relative variation of the maximum absorbance of the charge transfer bands ([1]; time 24 h): 3.0% | IC50 (MDA-MB-134-VI (FGFR+)): 7.1 ± 1.3 µM | IC50 (SK-BR-3 (FGFR+)): 7.5 ± 1 µM | IC50 (MCF-7 (FGFR−)): 5.8 ± 0.8 µM | IC50 range in words (MDA-MB-231 (FGFR−); MDA-MB-231): low micromolar range | IC50 (MDA-MB-231 (FGFR−); Table 5, MDA-MB-231): 7.1 µM | IC50 (MDA-MB-231 (FGFR−); Table 6, MDA-MB-231 (FGFR−)): 6.1 ± 1.3 µM | Relative variation of the maximum absorbance of the π→π* transitions ([2]; time 0 h): 0.0% | Relative variation of the maximum absorbance of the charge transfer bands ([2]; time 0 h): 0.0% | Relative variation of the maximum absorbance of the π→π* transitions ([2]; time 0.25 h): 0.3% | Relative variation of the maximum absorbance of the charge transfer bands ([2]; time 0.25 h): 0.0% | Relative variation of the maximum absorbance of the π→π* transitions ([2]; time 0.5 h): 0.3% | Relative variation of the maximum absorbance of the charge transfer bands ([2]; time 0.5 h): −0.1% | Relative variation of the maximum absorbance of the π→π* transitions ([2]; time 0.75 h): 0.3% | Relative variation of the maximum absorbance of the charge transfer bands ([2]; time 0.75 h): −0.2% | Relative variation of the maximum absorbance of the π→π* transitions ([2]; time 1 h): 0.5% | Relative variation of the maximum absorbance of the charge transfer bands ([2]; time 1 h): 0.1% | Relative variation of the maximum absorbance of the π→π* transitions ([2]; time 2 h): 0.4% | Relative variation of the maximum absorbance of the charge transfer bands ([2]; time 2 h): −0.2% | Relative variation of the maximum absorbance of the π→π* transitions ([2]; time 3 h): 0.6% | Relative variation of the maximum absorbance of the charge transfer bands ([2]; time 3 h): 0.2% | Relative variation of the maximum absorbance of the π→π* transitions ([2]; time 4 h): 0.7% | Relative variation of the maximum absorbance of the charge transfer bands ([2]; time 4 h): 0.9% | Relative variation of the maximum absorbance of the π→π* transitions ([2]; time 5 h): −0.3% | Relative variation of the maximum absorbance of the charge transfer bands ([2]; time 5 h): 1.0% | Relative variation of the maximum absorbance of the π→π* transitions ([2]; time 6 h): −0.2% | Relative variation of the maximum absorbance of the charge transfer bands ([2]; time 6 h): 0.6% | Relative variation of the maximum absorbance of the π→π* transitions ([2]; time 24 h): −0.2% | Relative variation of the maximum absorbance of the charge transfer bands ([2]; time 24 h): 1.6%

CCC(=O)C1=C[CH]([Ru-]2([PH](c3ccccc3)(c3ccccc3)c3ccccc3)[n+]3ccccc3-c3cccc[n+]32)C=C1.O=S(=O)([O-])C(F)(F)F (stereo not drawn) [compound 8]
Relative variation of the maximum absorbance of the π→π* transitions ([1]; time 0 h): 0.0% | Relative variation of the maximum absorbance of the charge transfer bands ([1]; time 0 h): 0.0% | Relative variation of the maximum absorbance of the π→π* transitions ([1]; time 0.25 h): −0.1% | Relative variation of the maximum absorbance of the charge transfer bands ([1]; time 0.25 h): −0.3% | Relative variation of the maximum absorbance of the π→π* transitions ([1]; time 0.5 h): −0.2% | Relative variation of the maximum absorbance of the charge transfer bands ([1]; time 0.5 h): −0.6% | Relative variation of the maximum absorbance of the π→π* transitions ([1]; time 0.75 h): 0.0% | Relative variation of the maximum absorbance of the charge transfer bands ([1]; time 0.75 h): −0.7% | Relative variation of the maximum absorbance of the π→π* transitions ([1]; time 1 h): −0.1% | Relative variation of the maximum absorbance of the charge transfer bands ([1]; time 1 h): −0.9% | Relative variation of the maximum absorbance of the π→π* transitions ([1]; time 2 h): 0.0% | Relative variation of the maximum absorbance of the charge transfer bands ([1]; time 2 h): −0.7% | Relative variation of the maximum absorbance of the π→π* transitions ([1]; time 3 h): 0.1% | Relative variation of the maximum absorbance of the charge transfer bands ([1]; time 3 h): −0.6% | Relative variation of the maximum absorbance of the π→π* transitions ([1]; time 4 h): 0.0% | Relative variation of the maximum absorbance of the charge transfer bands ([1]; time 4 h): −0.6% | Relative variation of the maximum absorbance of the π→π* transitions ([1]; time 5 h): 0.1% | Relative variation of the maximum absorbance of the charge transfer bands ([1]; time 5 h): −0.6% | Relative variation of the maximum absorbance of the π→π* transitions ([1]; time 6 h): 0.1% | Relative variation of the maximum absorbance of the charge transfer bands ([1]; time 6 h): −0.5% | Relative variation of the maximum absorbance of the π→π* transitions ([1]; time 24 h): 6.0% | Relative variation of the maximum absorbance of the charge transfer bands ([1]; time 24 h): −0.9% | IC50 range in words (MDA-MB-231 (FGFR−); MDA-MB-231): sub-micromolar range | IC50 (MDA-MB-231 (FGFR−); Table 5, MDA-MB-231): 0.56 µM | Relative variation of the maximum absorbance of the π→π* transitions ([2]; time 0 h): 0.0% | Relative variation of the maximum absorbance of the charge transfer bands ([2]; time 0 h): 0.0% | Relative variation of the maximum absorbance of the π→π* transitions ([2]; time 0.25 h): 0.0% | Relative variation of the maximum absorbance of the charge transfer bands ([2]; time 0.25 h): 0.0% | Relative variation of the maximum absorbance of the π→π* transitions ([2]; time 0.5 h): 0.2% | Relative variation of the maximum absorbance of the charge transfer bands ([2]; time 0.5 h): 0.1% | Relative variation of the maximum absorbance of the π→π* transitions ([2]; time 0.75 h): 0.0% | Relative variation of the maximum absorbance of the charge transfer bands ([2]; time 0.75 h): 0.0% | Relative variation of the maximum absorbance of the π→π* transitions ([2]; time 1 h): 0.1% | Relative variation of the maximum absorbance of the charge transfer bands ([2]; time 1 h): 0.3% | Relative variation of the maximum absorbance of the π→π* transitions ([2]; time 2 h): 0.0% | Relative variation of the maximum absorbance of the charge transfer bands ([2]; time 2 h): 0.2% | Relative variation of the maximum absorbance of the π→π* transitions ([2]; time 3 h): −0.3% | Relative variation of the maximum absorbance of the charge transfer bands ([2]; time 3 h): 0.0% | Relative variation of the maximum absorbance of the π→π* transitions ([2]; time 4 h): −0.1% | Relative variation of the maximum absorbance of the charge transfer bands ([2]; time 4 h): 0.0% | Relative variation of the maximum absorbance of the π→π* transitions ([2]; time 5 h): −0.1% | Relative variation of the maximum absorbance of the charge transfer bands ([2]; time 5 h): −0.3% | Relative variation of the maximum absorbance of the π→π* transitions ([2]; time 6 h): −0.2% | Relative variation of the maximum absorbance of the charge transfer bands ([2]; time 6 h): 0.3% | Relative variation of the maximum absorbance of the π→π* transitions ([2]; time 24 h): −0.2% | Relative variation of the maximum absorbance of the charge transfer bands ([2]; time 24 h): 0.2%
